According to publication PMC6248945, “Antibacterial properties of the pituitary adenylate cyclase-activating polypeptide: A new human antimicrobial peptide” (PLoS ONE, 2018):
Converted amounts (≈) assume the structure as drawn. Where a SMILES comes first, the peptide text is derived from it.

How the values were obtained:
[1] = tested on: Burkholderia cenocepacia (LMG18829); settings: LMG18829, 20 h
[2] = tested on: Burkholderia cenocepacia (K56-2); settings: 20 h
[3] = tested on: Burkholderia cenocepacia (J2315); settings: 20 h
[4] = tested on: Pseudomonas aeruginosa (PA14); settings: PA14, 20 h
[5] = tested on: Escherichia coli ATCC25922; settings: ATCC25922, 20 h
[6] = tested on: Serratia marcescens (ATCC14756); settings: ATCC14756, 20 h
[7] = tested on: Bacillus circulans (LSPQ3543); settings: 20 h
[8] = tested on: Burkholderia cenocepacia (LMG19240); settings: CLSI microdilution, MHB, 37 °C, 20h, OD read-out; at least triplicate
[9] = tested on: Pseudomonas putida (KT2440); settings: 20 h
[10] = tested on: Staphylococcus aureus (Newman); settings: 20 h
[11] = tested on: Pseudomonas fluorescens (MF37); settings: 20 h
[12] = tested on: Red blood cells; experiment: Haemolytic activity; format: cell-based; settings: human red blood cells in PBS, 30 min or 3h, 37°C; at 45 μg/mL (PACAP38) or 37 μg/mL (PACAP(9–38)); absorbance 545 nm; 3 independent experiments in triplicate
Method: All experimental procedures were performed in accordance with regulations and ethical guidelines and approved by the institutional committee of the Institut National de la Recherche Scientifique-Institut Armand-Frappier. Blood from healthy human volunteers was collected into sodium citrate-buffered vacutainers. Blood donations were obtained from informed and consenting individuals according to institutionally approved procedures. Red blood cells were pelleted (700 x g; 10 min), washed three times with 9 volumes of PBS by centrifugation (700 x g; 10 min), and then resuspended in PBS. […] PBS-incubated red blood cells were considered as negative control and maximum lysis of erythrocytes was obtained by incubating the cells with 0.1% (v/v) Triton X-100. At the end of the incubation period, cells were pelleted (700 x g, 10 min) and 100 μL of each supernatant was used to evaluate the release of hemoglobin by measuring the absorbance at 545 nm. Results were obtained from 3 independent experiments performed in triplicate.

[13] = tested on: Staphylococcus aureus (ATCC6538#P); settings: ATCC6538, 20 h
[14] = tested on: Actinobacillus pleuropneumoniae (4074); settings: 20 h
[15] = tested on: Bacillus velezensis; settings: 20 h
[16] = tested on: Bacillus cereus (ATCC11778); settings: ATCC11778, 20 h
[17] = tested on: Pseudomonas aeruginosa (ATCC33350-Sero-2); settings: ATCC33350, 20 h
[18] = tested on: Escherichia coli (JM109); experiment: MIC, CLSI microdilution; format: cell-based; settings: MHB, 37 °C, 20h, OD read-out, at least triplicate
[19] = tested on: Bacillus subtilis (PY79); settings: PY79, 20 h
[20] = tested on: Bacillus subtilis (2597); settings: 2597, 20 h
[21] = tested on: Bacillus amyloliquefaciens (LMG22478); settings: LMG22478, 20 h
[22] = tested on: Burkholderia thailendensis (ATCC700388); settings: CLSI microdilution, MHB, 37 °C, 20h, OD read-out; at least triplicate
[23] = tested on: Burkholderia cenocepacia (CEP0511 Gvar3b); settings: CLSI microdilution, MHB, 37 °C, 20h, OD read-out; at least triplicate
[24] = tested on: Escherichia coli (O157 :H7); settings: CLSI microdilution, MHB, 37 °C, 20h, OD read-out; at least triplicate
[25] = tested on: DPP-IV; design: method as in PMID 18353507; settings: cited from earlier work
[26] = relative to PACAP38; cited from earlier work

SMILES | MIC, Burkholderia cenocepacia (LMG18829) [1] [µg/mL] | MIC, Burkholderia cenocepacia (K56-2) [2] [µg/mL] | MIC, Burkholderia cenocepacia (J2315) [3] [µg/mL] | MIC, Pseudomonas aeruginosa (PA14) [4] [µg/mL] | MIC, Escherichia coli ATCC25922 [5] [µg/mL] | MIC, Serratia marcescens (ATCC14756) [6] [µg/mL] | MIC, Bacillus circulans (LSPQ3543) [7] [µg/mL] | MIC, Burkholderia cenocepacia (LMG19240) [8] [µg/mL] | MIC, Pseudomonas putida (KT2440) [9] [µg/mL] | MIC, Staphylococcus aureus (Newman) [10] [µg/mL] | MIC, Pseudomonas fluorescens (MF37) [11] [µg/mL] | MIC, Staphylococcus aureus (ATCC6538#P) [13] [µg/mL] | MIC, Actinobacillus pleuropneumoniae [14] [µg/mL] | MIC, Bacillus velezensis [15] [µg/mL] | MIC, Bacillus cereus (ATCC11778) [16] [µg/mL] | MIC, Pseudomonas aeruginosa (ATCC33350-Sero-2) [17] [µg/mL] | MIC, Escherichia coli (JM109) [18] [µg/mL] | MIC, Bacillus subtilis (PY79) [19] [µg/mL] | MIC, Bacillus subtilis (2597) [20] [µg/mL] | MIC, Bacillus amyloliquefaciens [21] [µg/mL] | further results
CC[C@H](C)[C@H](NC(=O)CNC(=O)[C@H](CC(=O)O)NC(=O)[C@H](CO)NC(=O)[C@@H](N)Cc1cnc[nH]1)C(=O)N[C@@H](Cc1ccccc1)C(=O)N[C@H](C(=O)N[C@@H](CC(=O)O)C(=O)N[C@@H](CO)C(=O)N[C@@H](Cc1ccc(O)cc1)C(=O)N[C@@H](CO)C(=O)N[C@@H](CCCNC(=N)N)C(=O)N[C@@H](Cc1ccc(O)cc1)C(=O)N[C@@H](CCCNC(=N)N)C(=O)N[C@@H](CCCCN)C(=O)N[C@@H](CCC(N)=O)C(=O)N[C@@H](CCSC)C(=O)N[C@@H](C)C(=O)N[C@H](C(=O)N[C@@H](CCCCN)C(=O)N[C@@H](CCCCN)C(=O)N[C@@H](Cc1ccc(O)cc1)C(=O)N[C@@H](CC(C)C)C(=O)N[C@@H](C)C(=O)N[C@@H](C)C(=O)N[C@H](C(=O)N[C@@H](CC(C)C)C(=O)NCC(=O)N[C@@H](CCCCN)C(=O)N[C@@H](CCCNC(=N)N)C(=O)N[C@@H](Cc1ccc(O)cc1)C(=O)N[C@@H](CCCCN)C(=O)N[C@@H](CCC(N)=O)C(=O)N[C@@H](CCCNC(=N)N)C(=O)N[C@H](C(=O)N[C@@H](CCCCN)C(=O)N[C@@H](CC(N)=O)C(=O)N[C@@H](CCCCN)C(N)=O)C(C)C)C(C)C)C(C)C)[C@@H](C)O [compound 1, PACAP38] | >200 | >200 | 10 (≈ 2.21 µM) | >200 | >200 | >200 | 94 (≈ 20.7 µM) | >200 | 113 (≈ 24.9 µM) | >200 | >200 | >200 | 7.5 (≈ 1.65 µM) | 76 (≈ 16.8 µM) | >200 | >200 | >200 | 28 (≈ 6.18 µM) | >200 | 42 (≈ 9.26 µM) | Haemolytic activity [12]: do not exert a very significant haemolytic activity; MIC, Burkholderia thailendensis (ATCC700388) [22]: >200 µg/mL; MIC, Burkholderia cenocepacia (CEP0511 Gvar3b) [23]: >200 µg/mL; MIC, Escherichia coli (O157 :H7) [24]: >200 µg/mL
CC[C@H](C)[C@H](NC(=O)CNC(=O)[C@H](CC(=O)O)NC(=O)[C@H](CO)NC(=O)[C@@H](N)Cc1c[nH]cn1)C(=O)N[C@@H](Cc1ccccc1)C(=O)N[C@H](C(=O)N[C@@H](CC(=O)O)C(=O)N[C@@H](CO)C(=O)N[C@@H](Cc1ccc(O)cc1)C(=O)N[C@@H](CO)C(=O)N[C@@H](CCCNC(=N)N)C(=O)N[C@@H](Cc1ccc(O)cc1)C(=O)N[C@@H](CCCNC(=N)N)C(=O)N[C@@H](CCCCN)C(=O)N[C@@H](CCC(N)=O)C(=O)N[C@@H](CCSC)C(=O)N[C@@H](C)C(=O)N[C@H](C(=O)N[C@@H](CCCCN)C(=O)N[C@@H](C)C(=O)N[C@@H](Cc1ccc(O)cc1)C(=O)N[C@@H](CC(C)C)C(=O)N[C@@H](C)C(=O)N[C@@H](C)C(=O)N[C@H](C(=O)N[C@@H](CC(C)C)C(=O)NCC(=O)N[C@@H](CCCCN)C(=O)N[C@@H](CCCNC(=N)N)C(=O)N[C@@H](Cc1ccc(O)cc1)C(=O)N[C@@H](CCCCN)C(=O)N[C@@H](CCC(N)=O)C(=O)N[C@@H](CCCNC(=N)N)C(=O)N[C@H](C(=O)N[C@@H](CCCCN)C(=O)N[C@@H](CC(N)=O)C(=O)N[C@@H](CCCCN)C(N)=O)C(C)C)C(C)C)C(C)C)[C@@H](C)O [compound 5, [Ala^21]PACAP38] (H-HSDGIFTDSYSRYRKQMAVKAYLAAVLGKRYKQRVKNK-NH2) | >200 | >200 | 20 (≈ 4.47 µM) | >200 | >200 | >200 | 84 (≈ 18.8 µM) | >200 | 186 (≈ 41.5 µM) | >200 | >200 | >200 | >200 | 168 (≈ 37.5 µM) | >200 | >200 | 112 (≈ 25 µM) | 42 (≈ 9.38 µM) | 56 (≈ 12.5 µM) | 20 (≈ 4.47 µM) | Metabolic stability against DPP-IV [25]: improved metabolic stability; Metabolic stability in human plasma [26]: improved metabolic stability; MIC, Burkholderia thailendensis (ATCC700388) [22]: >200 µg/mL; MIC, Burkholderia cenocepacia (CEP0511 Gvar3b) [23]: >200 µg/mL; MIC, Escherichia coli (O157 :H7) [24]: >200 µg/mL
